SMILES strings stand for the structures. ≈ marks a conversion by molar mass, not a printed value.

The text below walks through data of patent publication US7199114B2, “Triterpene quaternary salts as biologically active surfactants” (The Regents of the University of Minnesota, priority 2002, dated 2007).

The subject of assay [1] is dollar spot fungus. As to the kind of experiment: Turf plot trial at Clemson University (Example 85), area affected by dollar spot. The class given is in vivo, Agrostis stolonifera. Conditions: 50 grams active ingredient per 1000 square feet. How it is done:
(§1) Plots of creeping bentgrass, cv. “Pennlinks,” were treated with water based sprays of the test compounds. Sprays were delivered by CO2-charged sprayer to deliver the equivalent of 2 gallons of spray per 1000 sq. ft of plot area. Plots were 15 sq. ft. each, and treatments were mixed to apply material to 75 sq. ft (5 replicates), although only 4 replicates were treated. […] Daconil Ultrex® was applied at 3.2 oz./1000 sq. ft. for 14 days. The experiment used a randomized complete block design, with 4 replicates per treatment. Disease pressure was high. Pennlinks […] is moderately to highly susceptible to both dollar spot and brown patch. For brown patch, caused by Rhozoctonia sofani. a visual estimate of the percent of the plot area affected was recorded. Turf quality was estimated on a 1 to 9 scale, with 1 being worst and 9 being perfect. A rating of 6 is considered acceptable.
(§2) Plots of creeping bentgrass, cv. Pennlinks, were treated with water-based sprays as in Example 84 at Clemson University. Treatment application dates were May 7. May 14, May 28, and June 11. Plots were rated visually, estimating the percent of the area affected by dollar spot fungus […]. Turf quality was rated on a 1 to 9 scale, with 9 being perfect turf, as in Example 84. Disease pressure was moderately high to high when the trial was initiated, with existing dollar spot present.

Assay [2] in a line: Turf plot trial at Clemson University (Example 85), turf quality. The class given is in vivo, creeping bentgrass, cv. Pennlinks. Conditions: 1 to 9 scale, 50 grams active ingredient per 1000 square feet. How it is done:
as §1, §2

For assay [3], the system named is Enterococcus faecium Vancomycin-sensitive (first listed). As to the kind of experiment: Anti-bacterial activity, broth culture MIC. The class given is cell-based. The following applies: Enterococcus faecium Vancomycin-sensitive (r11/r12), broth culture, triplicate; for MIC: read-out: Approximate Minimum Inhibitory Concentration, MIC. How it is done:
(§3) Several uncharged or negatively charged triterpenes, and several positively charged triterpenes of the invention were tested for anti-bacterial activity against antibiotic-susceptible and antibiotic resistant strains of four types of bacteria of concern in clinics and hospitals. The triterpenes weres tested in broth culture in triplicate for ability to inhibit bacterial growth. The compounds tested are those listed below.
(§4) The lowest concentration which inhibits bacterial growth is referred to as the minimum inhibitory concentration (MIC), the standard measurement of anti-microbial activity.

Assay [4] relates to Enterococcus faecium Vancomycin-sensitive (second listed). Nature of the assay: Anti-bacterial activity, broth culture MIC. The class given is cell-based. The following applies: Enterococcus faecium Vancomycin-sensitive (r13/r14), broth culture, triplicate; for MIC: read-out: Approximate Minimum Inhibitory Concentration, MIC. The procedure:
as §3, §4

Assay [5] relates to Staphylococcus aureus Methicillin-resistant. As to the kind of experiment: Anti-bacterial activity, broth culture MIC. The following applies: Staphylococcus aureus Methicillin-resistant, broth culture, triplicate; for MIC: read-out: Approximate Minimum Inhibitory Concentration, MIC. The class given is cell-based. The procedure: as §3, §4
Assay [6] deals with Staphylococcus aureus Methicillin-sensitive. As to the kind of experiment: Anti-bacterial activity, broth culture MIC. Conditions: Staphylococcus aureus Methicillin-sensitive, broth culture, triplicate; for MIC: read-out: Approximate Minimum Inhibitory Concentration, MIC. The class given is cell-based. The procedure: as §3, §4
Assay [7] relates to dollar spot fungus (Agrostis stolonifera). As to the kind of experiment: Turf plot trial at Clemson University (Example 85), area affected by dollar spot. The following applies: 50 grams active ingredient per 1000 square feet. The class given is in vivo. The procedure:
as §1, §2

As for `C=C(C)[C@@H]1CC[C@]2(COC(=O)C(C)[N+]34CCN(CC3)CC4)CC[C@]3(C)C(CCC4[C@@]5(C)CC[C@H](OC(=O)C(C)[N+]67CCN(CC6)CC7)C(C)(C)C5CC[C@]43C)C12.Cl.Cl` (stereo partly drawn) [Compound 22, Lup-20(29)-ene-3,28-bis[N-(1,4-diazabicyclo [2.2.2]octyl)-2-propionate]-dichloride], the “% of area infected” value came to 24.5 a % in assay [1] (Table 5 c2, Jun. 3, 2002); 17.3 ab % in assay [1] (Table 5 c4, Jun. 3, 2002); 34.3 a % in assay [1] (Table 6, May 8, 2002); 28.5 a % in assay [1] (Table 6, May 13, 2002); 31.5 bc % in assay [1] (Table 6, May 20, 2002); 32.0 ab % in assay [1] (Table 6, May 27, 2002). The Turf quality in assay [2] (Table 5, Jun. 3, 2002) was 4.80 abc; in assay [2] (Table 5, Jun. 17, 2002), 5.07 ab; in assay [2] (Table 5, May 27, 2002) it was 3.05 b; in assay [2] (Table 6, May 8, 2002), 3.00 a; in assay [2] (Table 6, May 13, 2002) it was 3.13 a; in assay [2] (Table 6, May 20, 2002) it was 2.95 ab.
With `C=C(C)[C@@H]1CC[C@]2(CO)CC[C@]3(C)C(CCC4[C@@]5(C)CC[C@H](OC(=O)C[N+]67CCN(CC6)CC7)C(C)(C)C5CC[C@]43C)C12.[Cl-]` (stereo partly drawn) [Compound 6], the MIC in assay [3] came out at 5 µg/mL; in assay [4] it was 10 µg/mL; in assay [5] it was 2 µg/mL; in assay [6] it was 2 µg/mL.
`C=C(C)[C@@H]1CC[C@]2(COC(=O)/C=C\C(=O)O)CC[C@]3(C)[C@H](CC[C@@H]4[C@@]5(C)CC[C@H](OC(=O)/C=C\C(=O)O)C(C)(C)[C@@H]5CC[C@]43C)[C@@H]12` [Compound 93, betulin-3,28-dimaleate, reference compound]: the “Approximate Minimum Inhibitory Concentration, MIC” value in assay [5] and in assay [6] was 200 µg/mL in each case.
Turning to `C=C(C)[C@@H]1CC[C@]2(COC(=O)C[N+](C)(C)CCCCCCCCCCCCCC)CC[C@]3(C)C(CCC4[C@@]5(C)CC[C@H](OC(=O)C[N+](C)(C)CCCCCCCCCCCCCC)C(C)(C)C5CC[C@]43C)C12.[Cl-].[Cl-]` (stereo partly drawn) [Compound 55, Lup-20(29)-ene-3,28-bis(tetradecyldimethylamoniumacetate) dichloride], the “% of area infected” value was determined as 28.8 a % in assay [1] (Table 5 c2, Jun. 3, 2002); 24.3 a % in assay [1] (Table 5 c4, Jun. 3, 2002); 33.5 a % in assay [1] (Table 6, May 8, 2002); 30.0 a % in assay [1] (Table 6, May 13, 2002); 32.8 b % in assay [1] (Table 6, May 20, 2002); 29.3 a-d % in assay [1] (Table 6, May 27, 2002). Besides, the Turf quality in assay [2] (Table 5, Jun. 3, 2002) stood at 5.10 ab; in assay [2] (Table 5, Jun. 17, 2002), 5.2 ab; in assay [2] (Table 5, May 27, 2002), 3.38 ab; in assay [2] (Table 6, May 8, 2002), 3.05 a; in assay [2] (Table 6, May 13, 2002), 3.00 a; in assay [2] (Table 6, May 20, 2002), 2.97 ab.
In the case of `C=C(C)C1CCC2(COC(=O)CCC(=O)O)CC[C@@]3(C)C(CCC4[C@@]5(C)CCC(OC(=O)CCC(=O)O)C(C)(C)C5CC[C@]43C)C12` (stereo partly drawn) [Compound 91, betulin-3,28-disuccinate, reference compound], in assay [6], the “Approximate Minimum Inhibitory Concentration, MIC” value stood at 200 µg/mL.
With `C=C(C)[C@@H]1CC[C@]2(C)CC[C@]3(C)[C@H](CC[C@@H]4[C@@]5(C)C=C(O)C(=O)C(C)(C)[C@@H]5CC[C@]43C)[C@@H]12` [Compound 85, lupeneno-1-ene-2-ol, reference compound], the MIC in assay [3] is 20 µg/mL (≈ 45.6 µM); in assay [4], 50 µg/mL (≈ 114 µM); in assay [5], 100 µg/mL (≈ 228 µM); in assay [6], 50 µg/mL (≈ 114 µM).
`C=C(C)[C@@H]1CC[C@]2(COC(=O)C[N+](C)(C)CCCCCCCC)CC[C@]3(C)C(CCC4[C@@]5(C)CC[C@H](OC(=O)C[N+](C)(C)CCCCCCCC)C(C)(C)C5CC[C@]43C)C12.[Cl-].[Cl-]` (stereo partly drawn) [Compound 53, Lup-20(29)-ene-3,28-bis(octyldimethylammoniumacetate) dichloride]: the “% of area infected” value in assay [1] (Table 5 c2, Jun. 3, 2002) is recorded as 22.5 a %; in assay [1] (Table 5 c4, Jun. 3, 2002), 19.5 ab %; in assay [1] (Table 6, May 8, 2002) it was 33.5 a %; in assay [1] (Table 6, May 13, 2002), 28.5 a %; in assay [1] (Table 6, May 20, 2002), 27.3 bc %; in assay [1] (Table 6, May 27, 2002), 26.8 bcd %. Also, the Turf quality in assay [2] (Table 5, Jun. 3, 2002) came out at 5.18 ab; in assay [2] (Table 5, Jun. 17, 2002), 5.38 ab; in assay [2] (Table 5, May 27, 2002) it was 3.60 ab; in assay [2] (Table 6, May 8, 2002), 3.00 a; in assay [2] (Table 6, May 13, 2002), 3.05 a; in assay [2] (Table 6, May 20, 2002), 3.25 ab.
Turning to `C=C(C)[C@@H]1CC[C@]2(COC(=O)/C=C\C(=O)O)CC[C@]3(C)[C@H](CC[C@@H]4[C@@]5(C)CC[C@H](O)C(C)(C)[C@@H]5CC[C@]43C)[C@@H]12` [Compound 94, betulin-28-maleate, reference compound], the “Approximate Minimum Inhibitory Concentration, MIC” value in assay [3] came to 200 µg/mL; in assay [4] it was 200 µg/mL; in assay [6], 50 µg/mL.
For `C=C(C)[C@@H]1CC[C@]2(CO)CC[C@]3(C)C(CCC4[C@@]5(C)CC[C@H](OC(=O)C[N+](C)(C)CCCCCCCCCCCCCC)C(C)(C)C5CC[C@]43C)C12.[Cl-]` (stereo partly drawn) [Compound 56], the “% of area infected” value in assay [7] (Table 5 c2, Jun. 3, 2002) was found to be 22.0 a %; in assay [7] (Table 5 c4, Jun. 3, 2002) it was 19.3 ab %; in assay [7] (Table 6, May 8, 2002), 31.0 a %; in assay [7] (Table 6, May 13, 2002), 26.5 a %; in assay [7] (Table 6, May 20, 2002), 32.0 bc %; in assay [7] (Table 6, May 27, 2002), 21.8 cd %. The Turf quality is on record as 5.30 ab in assay [2] (Table 5, Jun. 3, 2002); 5.38 ab in assay [2] (Table 5, Jun. 17, 2002); 4.47 ab in assay [2] (Table 5, May 27, 2002); 3.13 a in assay [2] (Table 6, May 8, 2002); 3.00 a in assay [2] (Table 6, May 13, 2002); 3.03 ab in assay [2] (Table 6, May 20, 2002).
As to `C=C(C)[C@@H]1CC[C@]2(COC(=O)C[n+]3ccc(N(C)C)cc3)CC[C@]3(C)C(CCC4[C@@]5(C)CC[C@H](OC(=O)C[n+]6ccc(N(C)C)cc6)C(C)(C)C5CC[C@]43C)C12.[Cl-].[Cl-]` (stereo partly drawn) [Compound 46, Lup-20(29)-ene-3,28-bis[N-(4-dimethylaminopyridinium)acetate] dichloride], the “% of area infected” value in assay [7] (Table 5 c2, Jun. 3, 2002) is 23.5 a %; in assay [7] (Table 5 c4, Jun. 3, 2002) it was 24.0 a %; in assay [7] (Table 6, May 8, 2002), 30.5 a %; in assay [7] (Table 6, May 13, 2002), 28.0 a %; in assay [7] (Table 6, May 20, 2002) it was 25.0 bc %; in assay [7] (Table 6, May 27, 2002) it was 26.8 bcd %. For the same compound, the Turf quality came out at 5.40 ab in assay [2] (Table 5, Jun. 3, 2002); 4.52 ab in assay [2] (Table 5, Jun. 17, 2002); 4.00 ab in assay [2] (Table 5, May 27, 2002); 3.25 a in assay [2] (Table 6, May 8, 2002); 3.38 a in assay [2] (Table 6, May 13, 2002); 3.50 a in assay [2] (Table 6, May 20, 2002).
On to `C=C(C)C1CCC2(C)CCC3(C)C(CCC4C5(C)CCC(OC(=O)C=CC(=O)O)C(C)(C)C5CCC43C)C12` (stereo not drawn) [Compound 86, lupeol-3-maleate, reference compound], for which the figures for the “Approximate Minimum Inhibitory Concentration, MIC” value in assay [3], in assay [3] (listed as lupeol-3-maleate) and in assay [4] were 10 µg/mL, at most 10 µg/mL and 50 µg/mL, respectively.
As for `C=C(C)C1CCC2(COC(=O)CCC(=O)O)CC[C@@]3(C)C(CCC4[C@@]5(C)CCC(O)C(C)(C)C5CC[C@]43C)C12` (stereo partly drawn) [Compound 92, betulin-28-succinate, reference compound], in assay [6], the “Approximate Minimum Inhibitory Concentration, MIC” value came out at 50 µg/mL.
